Experimental data: paper PMC3693459 (Nuclear medicine and biology, 2009)

Experiments:
[1] = system: aromatase; assay: PET studies in baboon brain; settings: for brain penetration / uptake in amygdala and preoptic area (PET images): baboon brain; for brain penetration: at 2.5 min; for uptake in amygdala and preoptic area (PET images): images summed 15-90 min after injection
[2] = Measurement of log D; settings: 1-octanol / phosphate buffered saline pH 7.4
[3] = Measurement of free fraction in plasma; settings: baboon plasma, room temperature, 10 min incubation
[4] = for appearance of labeled metabolites in plasma: compared with N-1 (11C-1)
[5] = system: aromatase; settings: cited from earlier work

Structure (SMILES) | brain penetration [1] | uptake in amygdala and preoptic area (PET images) [1] | Log D at pH 7.4 (n=4) [2] | Percent unbound in plasma (n=2) [3] | appearance of labeled metabolites in plasma ([4]; baboon plasma) | area under curve (AUC) in plasma normalized to the injected dose ([4]; baboon, over 90 minutes) | effect of pretreatment on [N-methyl-11C]vorozole (11C-1) accumulation in brain ([1]; baboon, blocking dose 0.1 mg/kg, 5 min prior, all brain regions examined) | activity of enantiomer at aromatase [5] | disappearance of the parent labeled compound from plasma ([4]; baboon plasma)
[11CH3]n1nnc2cc(C(c3ccc(Cl)cc3)n3cncn3)ccc21 (centres unmarked) [^11C-3] | 0.02-0.03 %ID/cc | no specific uptake in amygdala and preoptic area | 2.5 | 8.1% | very rapid appearance of labeled metabolites | similar |  |  | 
N#Cc1ccc(C(c2ccc(C#N)cc2)n2cncn2)cc1 [letrozole, reference compound] |  |  |  |  |  |  | reduced |  | 
Cn1nnc2ccc([C@@H](c3ccc(Cl)cc3)n3cncn3)cc21 [(R)-vorozole] |  |  |  |  |  |  |  | inactive | 
[11CH3]n1nc2ccc([C@H](c3ccc(Cl)cc3)n3cncn3)cc2n1 [^11C-2] | 0.02-0.03 %ID/cc | no specific uptake in amygdala and preoptic area | 2.9 | 4.6% | very rapid appearance of labeled metabolites |  |  |  | rapid rate of disappearance
